How the values were obtained:
[1] = target: Neuropeptide Y receptor type 2 (Homo sapiens) (UniProt P49146); test: Inhibition of Neuropeptide Y Y2 at 10 µM in the Eurofins-Panlabs radioligand binding assay (Eurofins_assay_257110); conditions: Compound concentration 10.0 uM
Rattus norvegicus [2] = organism: Rattus norvegicus; test: Inhibition of Rolipram at 10 µM in the Eurofins-Panlabs radioligand binding assay (Eurofins_assay_268811); format: protein assay; set-up: ligand concentration 1.8 nM; conditions: Compound concentration 10.0 uM
Rattus norvegicus [3] = organism: Rattus norvegicus; test: Inhibition of Thyroid Hormone at 10 µM in the Eurofins-Panlabs radioligand binding assay (Eurofins_assay_285900); format: protein assay; conditions: Compound concentration 10.0 uM
[4] = target: 5-hydroxytryptamine receptor 3A (Homo sapiens) (UniProt P46098); test: Inhibition of Serotonin (5-Hydroxytryptamine) 5-HT3 at 10 µM in the Eurofins-Panlabs radioligand binding assay (Eurofins_assay_271910); set-up: ligand concentration 0.69 nM; conditions: Compound concentration 10.0 uM
[5] = target: Sigma non-opioid intracellular receptor 1 (Homo sapiens) (UniProt Q99720); test: Sigma 1 Eurofins-Panlabs radioligand binding assay; set-up: ligand concentration 15 nM; conditions: Compound concentration 10.0 uM
Sequence of Sigma non-opioid intracellular receptor 1 (Homo sapiens) (Q99720 whole entry): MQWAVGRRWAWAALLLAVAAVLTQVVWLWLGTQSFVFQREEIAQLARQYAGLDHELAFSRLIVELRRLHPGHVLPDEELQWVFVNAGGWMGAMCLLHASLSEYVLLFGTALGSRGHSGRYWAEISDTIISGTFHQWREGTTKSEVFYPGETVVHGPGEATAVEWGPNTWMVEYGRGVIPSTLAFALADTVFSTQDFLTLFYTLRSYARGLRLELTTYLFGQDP

[6] = target: RAC-beta serine/threonine-protein kinase (Homo sapiens, UniProt P31751); test: Akt2 [PKBbeta(AKT2CGY1)] Takeda global kinase panel
[7] = target: Tyrosine-protein kinase Blk (Homo sapiens, UniProt P51451); test: BLK(BLK1CGF1) Takeda global kinase panel
Sequence of Tyrosine-protein kinase Blk (P51451 whole entry): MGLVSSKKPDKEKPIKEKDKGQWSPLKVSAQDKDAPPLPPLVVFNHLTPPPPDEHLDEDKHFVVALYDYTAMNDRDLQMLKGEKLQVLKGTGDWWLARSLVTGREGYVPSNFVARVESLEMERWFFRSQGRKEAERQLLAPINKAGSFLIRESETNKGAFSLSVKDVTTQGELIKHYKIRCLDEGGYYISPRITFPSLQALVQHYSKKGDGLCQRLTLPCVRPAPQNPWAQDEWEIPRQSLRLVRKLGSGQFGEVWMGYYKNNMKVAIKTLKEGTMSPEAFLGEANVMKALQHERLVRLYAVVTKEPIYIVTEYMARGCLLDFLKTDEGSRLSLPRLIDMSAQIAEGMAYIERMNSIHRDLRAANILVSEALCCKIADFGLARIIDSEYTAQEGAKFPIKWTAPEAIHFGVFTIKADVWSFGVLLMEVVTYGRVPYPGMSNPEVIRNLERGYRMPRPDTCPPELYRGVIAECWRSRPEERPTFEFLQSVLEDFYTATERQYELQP

[8] = target: Cytoplasmic tyrosine-protein kinase BMX (Homo sapiens, UniProt P51813); test: Etk [BMX(BMX1CGF1)] Takeda global kinase panel
Sequence of Cytoplasmic tyrosine-protein kinase BMX (P51813 whole entry): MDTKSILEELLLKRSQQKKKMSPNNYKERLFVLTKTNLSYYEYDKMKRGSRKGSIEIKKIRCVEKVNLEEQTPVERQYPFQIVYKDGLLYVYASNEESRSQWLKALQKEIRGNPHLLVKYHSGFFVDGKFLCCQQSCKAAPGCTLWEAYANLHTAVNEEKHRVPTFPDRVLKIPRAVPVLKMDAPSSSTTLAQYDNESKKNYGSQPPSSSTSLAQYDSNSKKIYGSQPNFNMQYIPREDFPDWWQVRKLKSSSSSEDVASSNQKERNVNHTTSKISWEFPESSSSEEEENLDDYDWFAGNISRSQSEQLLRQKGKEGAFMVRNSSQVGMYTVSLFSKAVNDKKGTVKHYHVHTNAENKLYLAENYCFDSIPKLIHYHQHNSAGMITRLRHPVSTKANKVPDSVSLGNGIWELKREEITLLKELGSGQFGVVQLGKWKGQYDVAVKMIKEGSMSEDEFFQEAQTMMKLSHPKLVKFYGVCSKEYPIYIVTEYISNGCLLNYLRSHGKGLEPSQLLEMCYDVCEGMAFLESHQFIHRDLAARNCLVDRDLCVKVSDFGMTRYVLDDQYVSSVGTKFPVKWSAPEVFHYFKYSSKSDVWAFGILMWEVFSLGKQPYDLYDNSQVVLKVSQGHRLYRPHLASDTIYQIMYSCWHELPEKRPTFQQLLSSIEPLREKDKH

[9] = target: Tyrosine-protein kinase BTK (Homo sapiens, UniProt Q06187); test: BTK(BTK1CGF1) Takeda global kinase panel
[10] = target: Cyclin-dependent kinase 13 (Homo sapiens, UniProt Q14004); test: CHED(CD13PHS1) Takeda global kinase panel
[11] = target: Cyclin-dependent kinase 14 (Homo sapiens, UniProt O94921); test: PFTAIRE1(CD14CGS1) Takeda global kinase panel
[12] = target: Cyclin-dependent kinase 2 (Homo sapiens, UniProt P24941); test: CDK2(CDK2CGS1) Takeda global kinase panel
[13] = target: Serine/threonine-protein kinase Chk1 (Homo sapiens, UniProt O14757); test: CHK1(CHE1CGP1) Takeda global kinase panel
[14] = target: Dual specificity protein kinase CLK3 (Homo sapiens, UniProt P49761); test: CLK3(CLK3LGY1) Takeda global kinase panel
[15] = target: Death-associated protein kinase 2 (Homo sapiens, UniProt Q9UIK4); test: DAPK2(DAP2LGF1) Takeda global kinase panel
[16] = target: Fibroblast growth factor receptor 4 (Homo sapiens, UniProt P22455); test: FGFR4(FGF4LGF1) Takeda global kinase panel
[17] = target: Tyrosine-protein kinase Fgr (Homo sapiens, UniProt P09769); test: Fgr(FGR1LGF1) Takeda global kinase panel
Sequence of Tyrosine-protein kinase Fgr (P09769 whole entry, the tested form may be a part): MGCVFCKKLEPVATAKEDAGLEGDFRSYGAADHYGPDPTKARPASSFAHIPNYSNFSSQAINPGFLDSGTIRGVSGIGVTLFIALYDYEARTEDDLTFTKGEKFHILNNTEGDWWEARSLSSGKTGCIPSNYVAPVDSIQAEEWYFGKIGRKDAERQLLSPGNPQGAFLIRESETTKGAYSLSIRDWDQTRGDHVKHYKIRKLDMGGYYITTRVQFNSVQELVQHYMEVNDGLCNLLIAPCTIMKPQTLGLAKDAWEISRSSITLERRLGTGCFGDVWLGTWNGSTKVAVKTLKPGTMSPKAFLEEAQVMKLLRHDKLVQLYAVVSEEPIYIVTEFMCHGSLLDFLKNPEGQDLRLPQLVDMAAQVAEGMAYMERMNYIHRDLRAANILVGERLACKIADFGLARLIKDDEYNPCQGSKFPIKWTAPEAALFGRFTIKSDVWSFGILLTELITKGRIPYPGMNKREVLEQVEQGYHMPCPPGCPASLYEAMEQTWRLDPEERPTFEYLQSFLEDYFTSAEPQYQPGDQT

LIM domain kinase 1 = LIM domain kinase 1 (Homo sapiens, UniProt P53667); test: LIMK1(LIM1LGY1) Takeda global kinase panel
[18] = target: Serine/threonine-protein kinase Nek3 (Homo sapiens, UniProt P51956); test: Nek3(NEK3LGRI) Takeda global kinase panel
[19] = target: Serine/threonine-protein kinase NLK (Homo sapiens, UniProt Q9UBE8); test: NLK(NLK1LGI5) Takeda global kinase panel
Sequence of Serine/threonine-protein kinase NLK (Q9UBE8 whole entry): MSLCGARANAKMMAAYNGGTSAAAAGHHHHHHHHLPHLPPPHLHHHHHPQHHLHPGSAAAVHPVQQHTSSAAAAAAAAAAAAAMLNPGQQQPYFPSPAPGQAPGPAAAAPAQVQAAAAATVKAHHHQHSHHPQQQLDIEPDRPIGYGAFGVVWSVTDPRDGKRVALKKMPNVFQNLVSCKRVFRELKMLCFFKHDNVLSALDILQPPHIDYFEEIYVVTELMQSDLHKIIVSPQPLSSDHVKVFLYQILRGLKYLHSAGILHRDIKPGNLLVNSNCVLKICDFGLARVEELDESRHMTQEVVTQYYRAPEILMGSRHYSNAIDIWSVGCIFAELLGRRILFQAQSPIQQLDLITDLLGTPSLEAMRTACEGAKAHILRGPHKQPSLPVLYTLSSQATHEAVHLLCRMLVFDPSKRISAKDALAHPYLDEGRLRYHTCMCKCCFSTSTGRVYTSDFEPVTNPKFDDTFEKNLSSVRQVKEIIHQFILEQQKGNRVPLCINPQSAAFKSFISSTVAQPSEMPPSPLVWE

[20] = target: High affinity nerve growth factor receptor (Homo sapiens, UniProt P04629); test: TRKA(NTR1LGN1) Takeda global kinase panel
[21] = target: NUAK family SNF1-like kinase 2 (Homo sapiens, UniProt Q9H093); test: NuaK2(NUA2LHY1) Takeda global kinase panel
Sequence of NUAK family SNF1-like kinase 2 (Q9H093 whole entry): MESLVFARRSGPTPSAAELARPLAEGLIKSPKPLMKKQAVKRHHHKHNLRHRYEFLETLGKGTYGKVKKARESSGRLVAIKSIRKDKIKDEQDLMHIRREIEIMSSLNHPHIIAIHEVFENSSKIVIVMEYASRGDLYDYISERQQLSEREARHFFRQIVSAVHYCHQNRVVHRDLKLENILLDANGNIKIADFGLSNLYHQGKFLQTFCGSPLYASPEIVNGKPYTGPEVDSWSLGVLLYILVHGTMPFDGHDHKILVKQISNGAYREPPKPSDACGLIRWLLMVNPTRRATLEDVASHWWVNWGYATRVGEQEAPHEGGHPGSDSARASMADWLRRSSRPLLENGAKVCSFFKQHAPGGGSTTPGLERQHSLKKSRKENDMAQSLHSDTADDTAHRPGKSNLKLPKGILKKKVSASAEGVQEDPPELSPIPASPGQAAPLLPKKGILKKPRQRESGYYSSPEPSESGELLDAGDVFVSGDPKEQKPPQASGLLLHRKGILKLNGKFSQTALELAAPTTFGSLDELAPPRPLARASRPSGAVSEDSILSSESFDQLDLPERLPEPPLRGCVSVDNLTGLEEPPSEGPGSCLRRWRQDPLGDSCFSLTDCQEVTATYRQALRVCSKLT

[22] = target: Serine/threonine-protein kinase PAK 4 (Homo sapiens, UniProt O96013); test: PAK4(PAK4CGY1) Takeda global kinase panel
[23] = target: Serine/threonine-protein kinase pim-1 (Homo sapiens, UniProt P11309); test: Pim1(PIM1LGP1) Takeda global kinase panel
[24] = target: Calcium/calmodulin-dependent protein kinase type 1B (Homo sapiens, UniProt Q6P2M8); test: CaMK1beta(PNCKLGRI) Takeda global kinase panel
[25] = target: cGMP-dependent protein kinase 2 (Homo sapiens, UniProt Q13237); test: PKG2(PRG2LHY1) Takeda global kinase panel
Sequence of cGMP-dependent protein kinase 2 (Q13237 whole entry): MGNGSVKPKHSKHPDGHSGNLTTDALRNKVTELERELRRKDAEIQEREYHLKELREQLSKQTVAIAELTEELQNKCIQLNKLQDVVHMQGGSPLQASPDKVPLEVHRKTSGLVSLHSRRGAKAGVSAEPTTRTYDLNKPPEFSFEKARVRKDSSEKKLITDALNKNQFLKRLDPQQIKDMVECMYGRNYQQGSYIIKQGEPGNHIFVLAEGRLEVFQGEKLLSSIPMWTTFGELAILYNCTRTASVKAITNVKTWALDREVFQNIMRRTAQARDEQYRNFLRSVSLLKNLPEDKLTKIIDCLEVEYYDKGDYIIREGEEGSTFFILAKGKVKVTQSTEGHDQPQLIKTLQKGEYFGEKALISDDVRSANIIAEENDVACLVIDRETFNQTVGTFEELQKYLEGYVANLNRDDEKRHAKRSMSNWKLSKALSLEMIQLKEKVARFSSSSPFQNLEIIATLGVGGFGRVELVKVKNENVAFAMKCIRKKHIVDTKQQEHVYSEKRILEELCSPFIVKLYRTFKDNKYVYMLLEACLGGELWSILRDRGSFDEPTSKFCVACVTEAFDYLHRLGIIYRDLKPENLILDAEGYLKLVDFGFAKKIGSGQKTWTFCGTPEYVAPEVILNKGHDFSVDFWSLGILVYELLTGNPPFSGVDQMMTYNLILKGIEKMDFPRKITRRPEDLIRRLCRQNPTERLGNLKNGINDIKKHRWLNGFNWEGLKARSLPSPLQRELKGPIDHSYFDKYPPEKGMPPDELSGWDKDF

[26] = target: Rho-associated protein kinase 2 (Homo sapiens, UniProt O75116); test: ROCK2(ROC2LGG1) Takeda global kinase panel
[27] = target: Serine/threonine-protein kinase SBK1 (Homo sapiens, UniProt Q52WX2); test: SBK(SBK1LGY1) Takeda global kinase panel
[28] = target: Serine/threonine-protein kinase SIK1 (Homo sapiens, UniProt P57059); test: SIK(SIK1LHY1) Takeda global kinase panel
[29] = target: Serine/threonine-protein kinase TBK1 (Homo sapiens, UniProt Q9UHD2); test: TBK1(TBK1CGF1) Takeda global kinase panel
Sequence of Serine/threonine-protein kinase TBK1 (Q9UHD2 whole entry): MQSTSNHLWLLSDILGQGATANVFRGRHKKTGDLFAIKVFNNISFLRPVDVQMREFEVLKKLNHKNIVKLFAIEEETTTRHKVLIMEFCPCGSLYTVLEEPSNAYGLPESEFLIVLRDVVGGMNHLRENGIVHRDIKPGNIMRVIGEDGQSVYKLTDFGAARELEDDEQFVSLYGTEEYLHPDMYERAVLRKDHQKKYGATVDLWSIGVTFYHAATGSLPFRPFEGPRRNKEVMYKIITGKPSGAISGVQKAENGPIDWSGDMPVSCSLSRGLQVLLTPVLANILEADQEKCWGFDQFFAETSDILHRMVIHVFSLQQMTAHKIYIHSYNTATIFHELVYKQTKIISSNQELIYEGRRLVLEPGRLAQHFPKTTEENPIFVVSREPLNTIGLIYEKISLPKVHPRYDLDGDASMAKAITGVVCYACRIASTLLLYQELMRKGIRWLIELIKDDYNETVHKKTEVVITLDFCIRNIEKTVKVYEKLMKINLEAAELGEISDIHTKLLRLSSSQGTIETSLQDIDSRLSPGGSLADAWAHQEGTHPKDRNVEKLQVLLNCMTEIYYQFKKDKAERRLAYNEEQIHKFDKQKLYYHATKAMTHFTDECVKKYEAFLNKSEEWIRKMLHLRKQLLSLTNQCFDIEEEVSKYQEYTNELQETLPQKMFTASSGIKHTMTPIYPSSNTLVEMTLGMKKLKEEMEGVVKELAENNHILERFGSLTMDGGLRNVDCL

[30] = target: Serine/threonine-protein kinase TNNI3K (Homo sapiens, UniProt Q59H18); test: HH498(TNNILGY1) Takeda global kinase panel
[31] = target: Serine/threonine-protein kinase ULK3 (Homo sapiens, UniProt Q6PHR2); test: ULK3(ULK3LGF1) Takeda global kinase panel
[32] = target: Serine/threonine-protein kinase VRK2 (Homo sapiens, UniProt Q86Y07); test: VRK2(VRK2LGRI) Takeda global kinase panel
[33] = target: 5-hydroxytryptamine receptor 2A (Homo sapiens, UniProt P28223); conditions: Compound concentration 10.0 uM
[34] = target: GABA-A receptor; anion channel (Rattus norvegicus) (UniProt O09028+P15431+P18506+P18508+P19969+P20236+P23574+P23576+P28471+P28473+P30191+P62813+P63079+P63138+Q91ZM7+Q9ES14); conditions: Compound concentration 10.0 uM
[35] = target: Histamine H4 receptor (Homo sapiens) (UniProt Q9H3N8); conditions: Compound concentration 10.0 uM
[36] = target: Alpha-2A adrenergic receptor (Homo sapiens) (UniProt P08913); conditions: Compound concentration 10.0 uM
[37] = target: Muscarinic acetylcholine receptor M5 (Homo sapiens) (UniProt P08912); conditions: Compound concentration 10.0 uM
[38] = target: Beta-3 adrenergic receptor (Homo sapiens) (UniProt P13945); conditions: Compound concentration 10.0 uM
Rattus norvegicus [39] = organism: Rattus norvegicus; conditions: Compound concentration 10.0 uM
[40] = target: Adenosine receptor A2a (Homo sapiens) (UniProt P29274); conditions: Compound concentration 10.0 uM
[41] = target: Adenosine receptor A3 (Homo sapiens) (UniProt P0DMS8); conditions: Compound concentration 10.0 uM
Sequence of Adenosine receptor A3 (Homo sapiens) (P0DMS8 whole entry): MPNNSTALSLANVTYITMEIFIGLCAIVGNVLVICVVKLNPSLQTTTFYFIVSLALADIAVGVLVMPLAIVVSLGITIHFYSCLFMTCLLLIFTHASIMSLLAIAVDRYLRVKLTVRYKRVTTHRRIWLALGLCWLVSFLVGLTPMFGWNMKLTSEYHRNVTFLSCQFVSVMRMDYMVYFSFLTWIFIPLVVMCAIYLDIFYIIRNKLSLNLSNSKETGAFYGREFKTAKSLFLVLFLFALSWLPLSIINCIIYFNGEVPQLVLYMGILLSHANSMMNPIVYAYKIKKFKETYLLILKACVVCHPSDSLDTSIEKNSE

[42] = target: Estrogen receptor (Homo sapiens) (UniProt P03372); conditions: Compound concentration 10.0 uM
[43] = target: Glutamate receptor ionotropic, kainate (Rattus norvegicus) (UniProt P22756+Q01812+P42260+P42264+Q63273); conditions: Compound concentration 10.0 uM

## CN1C(=O)[C@@H](N2CCc3c(nn(Cc4ccccc4)c3Br)C2=O)COc2ccccc21 [TP-030-2]
[1]
  inhibition: -6%
Rattus norvegicus [2]
  inhibition: 0%
Rattus norvegicus [3]
  inhibition: 4%
[4]
  inhibition: 4%
[5]
  inhibition: 13%
[6]
  IC50: 1000 nM
[7]
  IC50: 1000 nM
[8]
  IC50: 1000 nM
[9]
  IC50: 1000 nM
[10]
  IC50: 1000 nM
[11]
  IC50: 1000 nM
[12]
  IC50: 1000 nM
[13]
  IC50: 1000 nM
[14]
  IC50: 1000 nM
[15]
  IC50: 1000 nM
[16]
  IC50: 1000 nM
[17]
  IC50: 1000 nM
LIM domain kinase 1
  IC50: 1000 nM
[18]
  IC50: 1000 nM
[19]
  IC50: 1000 nM
[20]
  IC50: 1000 nM
[21]
  IC50: 1000 nM
[22]
  IC50: 1000 nM
[23]
  IC50: 1000 nM
[24]
  IC50: 1000 nM
[25]
  IC50: 1000 nM
[26]
  IC50: 1000 nM
[27]
  IC50: 1000 nM
[28]
  IC50: 1000 nM
[29]
  IC50: 1000 nM
[30]
  IC50: 1000 nM
[31]
  IC50: 1000 nM
[32]
  IC50: 1000 nM
[33]
  inhibition: 50.6%
[34]
  inhibition: 8.81%
[35]
  inhibition: 14.7%
[36]
  inhibition: 68%
[37]
  inhibition: 9.18%
[38]
  inhibition: 39.3%
Rattus norvegicus [39]
  inhibition: 82.2%
[40]
  inhibition: 8%
[41]
  inhibition: 33%
[42]
  inhibition: 10%
[43]
  inhibition: 5%

— ChEMBL document CHEMBL4507326, “Data for DCP probe TP-030-2” (2021)
